Read-outs that look alike come from different tables or passages of the source.
Key:
[1] = target: recombinant SARS-CoV-2 Main protease (Mpro) (Severe acute respiratory syndrome coronavirus 2 (2019-nCoV) (SARS-CoV-2), UniProt P0DTD1); assay: Cov Mpro Biochemical IC50 Assay; conditions: read-out: MPro IC50
[2] = tested on: SARS-CoV-2-NLuc; assay: microbe, parasite or virus in culture; type: cell-based, SARS Coronavirus 2
[3] = recombinant SARS-CoV-2 Mpro, fluorogenic peptide substrate
[4] = Severe acute respiratory syndrome coronavirus, 48 h, read-out: MPro EC50
[5] = recombinant SARS-CoV-2 Mpro 7.5 nM, fluorogenic peptide substrate 40 μM
[6] = Severe acute respiratory syndrome coronavirus, 48 h; read-out: MPro EC50

Compound: NC(=O)c1cc(-c2cccc(Cl)c2-c2ccc3c(=O)n(-c4cncc5ccccc45)c(=O)[nH]c3c2)ccc1Cl [Example 264]
- IC50 [1, 3]: 11.1 nM
- EC50 [2, 4]: 30.2 nM

Compound: COc1cc(-c2cc3[nH]c(=O)n(-c4cncc5sc(C#N)c(C)c45)c(=O)c3s2)c(Cl)cc1F [Example 1051]
- IC50 [1, 5]: 6.82 nM
- EC50 [2, 4]: 5.16 nM

Compound: COc1cc(Cl)c(-c2cc3c(s2)c(=O)n(-c2cncc4cnn(C)c24)c(=O)n3CCC#N)cc1F [Example 792]
- IC50 [1, 5]: 8.29 nM
- EC50 [2, 4]: 12.3 nM

Compound: COc1cc(-c2cc3[nH]c(=O)n(-c4cncc5ncccc45)c(=O)c3s2)c(Cl)cc1F [Example 737]
- IC50 [1, 5]: 17.9 nM
- EC50 [2, 4]: 74.1 nM

Compound: CN(CCO)c1ccc2cncc(-n3c(=O)[nH]c4cc(-c5ccccc5Cl)sc4c3=O)c2c1 [Example 404]
- IC50 [1, 5]: 6.49 nM
- EC50 [2, 4]: 37.4 nM

Compound: Cc1nc2cncc(-n3c(=O)c4sc(-c5ccc(F)cc5Cl)cc4n(CCC#N)c3=O)c2n1C (single isomer, unassigned) [Example 966, 3-(6-(2-chloro-4-fluorophenyl)-3-(1,2-dimethyl-1H-imidazo[4,5-c]pyridin-7-yl)-2,4-dioxo-3,4-dihydrothieno[3,2-d]pyrimidin-1(2H)-yl)propanenitrile]
- IC50 [1, 5]: 309 nM
- EC50 ([2]; read-out: MPro EC50): > 1000 nM

Compound: COc1ccc(Cl)c(-c2cc3[nH]c(=O)n(-c4cncc5ccc(N6CCOCC6)cc45)c(=O)c3cc2F)c1 [Example 434]
- IC50 [1, 5]: 16 nM
- EC50 [2, 6]: 33.3 nM

Compound: COc1cc(F)ccc1-c1cc2[nH]c(=O)n(-c3cncc4ccccc34)c(=O)c2s1 [Example 178]
- IC50 [1, 3]: 221 nM
- EC50 [2, 4]: 196 nM

Compound: COc1ccc(C#N)c(-c2cc3[nH]c(=O)n(-c4cncc5c4OCCC5)c(=O)c3s2)c1 [Example 587]
- IC50 [1, 5]: 27.9 nM
- EC50 [2, 4]: 117 nM

Compound: COc1ccc(Cl)c(-c2ccc3c(=O)n(-c4cncc5ccc(OC)cc45)c(=O)[nH]c3c2)c1 [Example 238]
- IC50 [1, 3]: 48 nM
- EC50 [2, 6]: 54.5 nM

Compound: COc1cc(-c2cc3c(s2)c(=O)n(-c2cncc(OC)c2C)c(=O)n3CCC#N)c(Cl)cc1F [Example 871]
- IC50 [1, 5]: 75.3 nM
- EC50 [2, 4]: 220 nM

Compound: COc1cc(-c2cc3c(s2)c(=O)n(-c2cncc4nc(C)n(C5CC5)c24)c(=O)n3CCC#N)c(Cl)cc1F [Example 990]
- IC50 [1, 5]: 4.1 nM
- EC50 [2, 4]: 14.1 nM

Compound: COc1cc(Cl)c(-c2cc3[nH]c(=O)n(-c4cncc5ccccc45)c(=O)c3s2)cc1F [Example 725]
- IC50 [1, 5]: 8.5 nM
- EC50 [2, 4]: 19.4 nM

Compound: COc1cc(-c2cc3[nH]c(=O)n(-c4cncc(Cl)c4)c(=O)c3s2)c(Cl)cc1F [Example 715]
- IC50 [1, 5]: 4.63 nM
- EC50 [2, 6]: 9.94 nM

Compound: COc1cc(-c2cc3[nH]c(=O)n(-c4cncc5ncc(C)n45)c(=O)c3s2)c(Cl)cc1F [Example 1082]
- IC50 [1, 5]: 18 nM
- EC50 [2, 4]: 91.1 nM

Compound: O=c1[nH]c2cc(-c3cc(C4CC4)ccc3Cl)sc2c(=O)n1-c1cncc2ccccc12 [Example 351]
- IC50 [1, 3]: 19.6 nM
- EC50 [2, 4]: 69.2 nM

Compound: O=c1[nH]c2cc(-c3c(Cl)cccc3-c3ccc4c(c3)CCS(=O)(=O)N4)ccc2c(=O)n1-c1cncc2ccccc12 [Example 327]
- IC50 [1, 3]: 13.3 nM
- EC50 [2, 4]: 96.3 nM

Compound: COc1cc(-c2cc3c(s2)c(=O)n(-c2cncc4ncn(C)c24)c(=O)n3CCC#N)c(Cl)cc1F [Example 843]
- IC50 [1, 5]: 5.43 nM
- EC50 [2, 4]: 13.2 nM

Compound: COc1ccc(Cl)c(-c2cc3[nH]c(=O)n(-c4cncc5scc(C)c45)c(=O)c3s2)c1 (single isomer, unassigned) [Example 1053, 6-(2-chloro-5-methoxyphenyl)-3-(3-methylthieno[2,3-c]pyridin-4-yl)thieno[3,2-d]pyrimidine-2,4(1H,3H)-dione]
- IC50 [1, 5]: 83.3 nM
- EC50 ([2]; read-out: MPro EC50): 48.5 nM

Compound: Cc1c(-c2ccccc2Cl)sc2c(=O)n(-c3cncc4ccccc34)c(=O)[nH]c12 [Example 76]
- IC50 [1, 3]: 2780 nM
- EC50 [2, 4]: 7400 nM

Compound: Cc1cc2ncnn2cc1-c1cc2[nH]c(=O)n(-c3cncc4ccccc34)c(=O)c2s1 [Example 15]
- IC50 [1, 3]: 3970 nM
- EC50 [2, 4]: 25100 nM

Compound: Cn1cc(-c2cccc(Cl)c2-c2ccc3c(=O)n(-c4cncc5ccccc45)c(=O)[nH]c3c2)cn1 [Example 144]
- IC50 [1, 3]: 95.4 nM
- EC50 [2, 4]: 68.2 nM

Compound: COc1cc(-c2cc3[nH]c(=O)n(-c4cncc5cccc(C)c45)c(=O)c3s2)c(Cl)cc1F [Example 560]
- IC50 [1, 5]: < 2.54 nM
- EC50 [2, 4]: 6.1 nM

Compound: O=c1[nH]c2cc(-c3c(Cl)cccc3-c3cnn4c3COCC4)ccc2c(=O)n1-c1cncc2ccccc12 [Example 305]
- IC50 [1, 3]: 8.8 nM
- EC50 [2, 4]: 12.8 nM

Compound: O=c1[nH]c2cc(-c3c(Cl)cccc3-c3cccnc3)ccc2c(=O)n1-c1cncc2ccccc12 [Example 187]
- IC50 [1, 3]: 29.4 nM
- EC50 [2, 4]: 17.6 nM

Compound: COc1cc(-c2cc3[nH]c(=O)n(-c4cncc5ccccc45)c(=O)c3s2)ccc1F [Example 469, 6-(4-fluoro-3-methoxy-phenyl)-3-(4-isoquinolyl)-1H-thieno[3,2-d]pyrimidine-2,4-dione]
- IC50 [1, 5]: 276 nM
- EC50 [2, 4]: 334 nM

Compound: Cn1ncc2cncc(-n3c(=O)[nH]c4cc(-c5c(Cl)cc(Cl)c6c5CCO6)sc4c3=O)c21 [Example 656]
- IC50 [1, 5]: 12 nM
- EC50 [2, 6]: 23.9 nM

Compound: COc1ccc(C#N)c(-c2cc3[nH]c(=O)n(-c4cncc5ccc(C(F)F)cc45)c(=O)c3s2)c1 [Example 224]
- IC50 [1, 3]: 10.2 nM
- EC50 [2, 4]: 124 nM

Compound: O=c1[nH]c2cc(-c3c(Cl)cccc3CC3CCOCC3)sc2c(=O)n1-c1cncc2ccccc12 [Example 561, 6-[2-chloro-6-(tetrahydropyran-4-ylmethyl)phenyl]-3-(4-isoquinolyl)-1H-thieno[3,2-d]pyrimidine-2,4-dione]
- IC50 [1, 5]: 142 nM
- EC50 [2, 4]: 177 nM

Compound: N#Cc1cncc(-c2cccc(Cl)c2-c2cc3[nH]c(=O)n(-c4cncc5ccccc45)c(=O)c3s2)c1 [Example 673]
- IC50 [1, 5]: 4.08 nM
- EC50 [2, 4]: 3.71 nM

Compound: Cn1ncc2cncc(-n3c(=O)c4sc(-c5c(Cl)cccc5-c5cncc(C#N)c5)cc4n(CCC#N)c3=O)c21 [Example 934]
- IC50 [1, 5]: 8.3 nM
- EC50 [2, 4]: 49 nM

Compound: COc1ccc(C#N)c(-c2ccc3c(=O)n(-c4cncc5ccccc45)c(=O)[nH]c3c2)c1 (single isomer, unassigned) [Example 570, 2-[3-(4-isoquinolyl)-2,4-dioxo-1H-quinazolin-7-yl]-4-methoxy-benzonitrile]
- IC50 [1, 5]: 1310 nM
- EC50 ([2]; read-out: MPro EC50): 700 nM

Compound: COc1cc(-c2cc3[nH]c(=O)n(-c4cncc5c4n(C)c(=O)n5C)c(=O)c3s2)c(Cl)cc1F [Example 750]
- IC50 [1, 5]: 7.76 nM
- EC50 [2, 4]: 36.6 nM

Compound: COc1ccc(Cl)c(-c2cc3[nH]c(=O)n(-c4cncc5ccc(OC)cc45)c(=O)c3s2)c1 [Example 625]
- IC50 [1, 5]: 6.91 nM
- EC50 [2, 4]: 18.1 nM

Compound: Cc1cc(F)cc(Cl)c1-c1cc2[nH]c(=O)n(-c3cncc4ccccc34)c(=O)c2s1 [Example 720]
- IC50 [1, 5]: 110 nM
- EC50 [2, 4]: 100 nM

Compound: Cn1cc(-c2cccc(Cl)c2-c2cc3[nH]c(=O)n(-c4cncc5ccccc45)c(=O)c3s2)c(C(F)(F)F)n1 [Example 280, 6-(2-chloro-6-(1-methyl-3-(trifluoromethyl)-1H-pyrazol-4-yl)phenyl)-3-(isoquinolin-4-yl)thieno[3,2-d]pyrimidine-2,4(1H,3H)-dione]
- IC50 [1, 3]: 5.97 nM
- EC50 [2, 4]: 15.9 nM

Compound: COc1cc(-c2cc3c(s2)c(=O)n(-c2cncc4[nH]nc(C)c24)c(=O)n3CCC#N)c(Cl)cc1F (single isomer, unassigned) [Example 960, 3-(6-(2-chloro-4-fluoro-5-methoxyphenyl)-3-(3-methyl-1H-pyrazolo[3,4-c]pyridin-4-yl)-2,4-dioxo-3,4-dihydrothieno[3,2-d]pyrimidin-1(2H)-yl)propanenitrile]
- IC50 [1, 5]: 79.6 nM
- EC50 ([2]; read-out: MPro EC50): 163 nM

Compound: COc1ccc(Cl)c(-c2cc3[nH]c(=O)n(-c4cncc5cnn(CC(F)(F)F)c45)c(=O)c3s2)c1 [Example 500]
- IC50 [1, 5]: 9.12 nM
- EC50 [2, 4]: 42.6 nM

Compound: N#CCn1c(=O)n(-c2cncc3ccccc23)c(=O)c2sc(-c3ccc(F)cc3Cl)cc21 [Example 727]
- IC50 [1, 5]: 3.09 nM
- EC50 [2, 4]: 8.36 nM

Compound: COc1ccc(Cl)c(-c2cc3[nH]c(=O)n(-c4cncc5ccc(O)cc45)c(=O)c3s2)c1 [Example 581]
- IC50 [1, 5]: < 2.54 nM
- EC50 [2, 4]: 151 nM

Compound: O=c1[nH]c2c(F)c(-c3ccccc3Cl)ccc2c(=O)n1-c1cncc2ccccc12 [Example 82]
- IC50 [1, 3]: 1370 nM
- EC50 [2, 4]: 2860 nM

Compound: Cn1cnc2cncc(-n3c(=O)c4sc(-c5ccccc5C#N)cc4n(CCC#N)c3=O)c21 [Example 844]
- IC50 [1, 5]: 65.6 nM
- EC50 [2, 6]: > 1000 nM

Compound: COc1cc(-c2cc3[nH]c(=O)n(-c4cncc5ccn(C)c45)c(=O)c3s2)c(Cl)cc1F (single isomer, unassigned) [Example 957, 6-(2-chloro-4-fluoro-5-methoxyphenyl)-3-(1-methyl-1H-pyrrolo[3,2-c]pyridin-7-yl)thieno[3,2-d]pyrimidine-2,4(1H,3H)-dione]
- IC50 [1, 5]: 2.22 nM
- EC50 ([2]; read-out: MPro EC50): 2.65 nM

Compound: COc1ccc(Cl)c(-c2cc3[nH]c(=O)n(-c4cncc5c(OC)cccc45)c(=O)c3s2)c1 [Example 627]
- IC50 [1, 5]: 1970 nM
- EC50 [2, 4]: 4770 nM

Compound: O=c1[nH]c2cc(-c3cc(C(F)(F)F)ccc3Cl)ccc2c(=O)n1-c1cncc2ccccc12 [Example 180]
- IC50 [1, 3]: 3740 nM
- EC50 [2, 4]: 1960 nM

Compound: CCn1cc2cncc(-n3c(=O)[nH]c4cc(-c5cc(OC)c(F)cc5Cl)sc4c3=O)c2n1 [Example 734]
- IC50 [1, 5]: 5.17 nM
- EC50 [2, 4]: 43.5 nM

Compound: COc1cc(-c2cc3c(s2)c(=O)n(-c2cncc4[nH]nc(C)c24)c(=O)n3CCC#N)c(Cl)cc1F [Example 768, 3-(6-(2-chloro-4-fluoro-5-methoxyphenyl)-3-(3-methyl-1H-pyrazolo[3,4-c]pyridin-4-yl)-2,4-dioxo-3,4-dihydrothieno[3,2-d]pyrimidin-1(2H)-yl)propanenitrile]
- IC50 [1, 5]: 5.26 nM
- EC50 [2, 4]: 7.16 nM

Compound: O=c1[nH]c2cc(-c3c(Cl)cccc3Cl)sc2c(=O)n1-c1cncc2ccccc12 [Example 110, 6-(2,6-dichlorophenyl)-3-(isoquinolin-4-yl)thieno[3,2-d]pyrimidine-2,4(1H,3H)-dione]
- IC50 [1, 3]: 372 nM
- EC50 [2, 6]: 275 nM

From US20240116946A1 (Gilead Sciences, Inc., priority 2022, published 2024)
